Source: patent publication US5242942A, “Anticonvulsant fructopyranose cyclic sulfites and sulfates” (McNeilab, Inc., priority 1992, dated 1993)

Columns and labels:
[1] = system: Total Acid Output; experiment: pylorus-ligated rat test, gastric antisecretory activity; type: in vivo, rat (male Charles River Sprague-Dawley derived); conditions: PO, read-out: ED50, inhibition of Total Acid Output
Method: The gastric antisecretory activity of the compounds shown in Table II was determined by the pylorus-ligated rat test described by Shay et al. in Gastroenterol. 1954, 26, 906. In this method, male Charles River Sprague-Dawley derived rats weighing 150-300 grams were deprived of food but not water for 18-24 hours prior to use. Water was withheld during the experiment, however. The rats were weighed, lightly anesthetized with ether and the pylorus ligated according to the method of Shay et al., supra. The treatment or vehicle control was then administered intraperitoneally (IP) or orally (PO). When administered by the IP route, the administration was done 30 minutes before ligation. When administered by the PO route, the administration was done prior to ligation (about 1/2 to 3 hours before). Rats were housed two per cage and sacrificed with carbon dioxide 3 hours after ligation. Their stomachs were removed, rinsed, and contents emptied into a graduated centrifuge tube. The tubes were centrifuged, the volume of gastric juice was recorded, and any samples obviously contaminated by feces, food or blood were eliminated. A 1 mL aliquot of gastric juice was titrated with 0.1N NaOH to a pH of 7.0-7.4. The volume of gastric juice secreted, the acid concentration, and the product of the volume times the concentration, i.e. the total amount of acid secreted, were measured. The total acid output was calculated by multiplying the volume of gastric juices collected times the hydrogen ion concentration (amount of NaOH added to a sample to reach a pH of 7.0-7.4) and dividing that value by 10. The mean value of the total acid output for a control group of rats was then subtracted from the mean value of the total acid output for the group of rats tested at the same dose. That value was then divided by the mean value of total acid output for the control group and the resulting number was multiplied by 100 to provide a Percent Inhibition value, which values are reported in Table II. The […] was determined statistically as the dose at which a 50% inhibition would be realized.

[2] = system: tonic extensor seizure; experiment: maximal electroshock test (MES); type: in vivo, mouse (albino male CRS-CD1); conditions: mouse, PO, at 4 hr
Method: The compounds of formula (I) are particularly useful as anticonvulsant agents in mammals including humans. The anticonvulsant activity of the subject compounds was determined using a standard "maximal electroshock test" (MES). In this test, activity is indicated by a block of the […] extensor seizure caused by application of an electric shock to mice via corneal electrodes, as described by Swinyard et al. in J. Pharmacol. Expt. Ther. 1952, 106, 319, and recorded as % block. A more recent description of current anticonvulsant drug screening is given by Swinyard in Epilepsia 1978, 19, 409. The anticonvulsant activity of the compounds of this invention tested according to the Swinyard 1952 method is shown in the following Table I.
In the test, albino male CRS-CD1 mice weighing between 18-25 g were used in all experiments (obtained from Charles River). They were allowed food and water ad libitum and were used only once. The electroshock apparatus and the corneal electrodes were purchased from Wahlquist Instrument Company, Salt Lake City, Utah.
Maximal electroshock seizures were induced by the delivery of a 60 Hertz (Hz) current of 50 milliamps (mA) intensity to the mouse through corneal electrodes for 0.2 seconds as originally described by Swinyard et al. (1952). This stimulus intensity is approximately 4 to 6 times the current producing 100% tonic extensor convulsions. During the validation of the MES test, the duration of the various seizure components following maximal electroshock were measured as follows: hindleg tonic flexion was measured from the time of the application of the stimulus to the time of onset of hindleg tonic extension (i.e. when the hindlegs deviate by greater than an angle of 90° from the torso), hindleg tonic extensor was measured from the time of extensor thrust to the onset of generalized clonus, and terminal clonus was measured from the beginning to the end of bilateral rhythmic clonic jerking. Mortality was also recorded. The duration of each seizure component agreed well with the values previously reported by Tedeschi et al. in J. Pharmacol. Expt. Ther. 1955, 116, 107. The corneal electrodes were concave so that saline could be applied to the electrodes to reduce mortality. If this procedure is followed, mortality should always be less than 40% in control mice. Thus, at an electroshock stimulus of 60 Hz, 50 mA and 0.2 seconds duration, the order of convulsive components and the percentage of control animals displaying the behaviors should be as follows: tonic flexion (100%), tonic extension (100%) and clonus (100%) with less than 40% mortality.
For testing compounds, the abolition of the tonic extensor component was the endpoint. Animals were dosed orally (PO) with either vehicle or test drug and at a specified time were given a maximal electric shock through corneal electrodes blotted with saline (as described above). A minimum of 10 animals were used per group and the percentage of animals in the group without tonic hindlimb extension recorded. Determination of ED50 values (that dose of drug inhibiting 50% of the tonic extensor seizures) is shown below in Table I.

## CC1(C)O[C@H]2[C@@H]3OS(=O)(=O)O[C@@H]3CO[C@@]2(COS(N)(=O)=O)O1 [Example 1, 2,3-O-(1-Methylethylidene)-4,5-O-sulfonyl-β-D-fructopyranose Sulfamate]
[1]
  ED50: 20 mg/kg
[2]
  ED50: 6.3 mg/kg
